The values that follow are results of earlier work, collected in patent publication US6825217B2, “Carbinols for the treatment of neuropathic dysfunction” (Endo Pharmaceuticals, Inc., priority 2001, dated 2004).

Each structure is given as a SMILES string.

The conditions of the series: rat, in vivo; cited from earlier work.

Consider `CSCC[C@@H]1NC(=O)[C@H](CC(C)C)NC(=O)[C@H](CCCNC(=N)N)NC(=O)[C@H](CO)NC(=O)[C@@H]2CSSC[C@@H]3NC(=O)[C@H](CO)NC(=O)CNC(=O)[C@H]([C@@H](C)O)NC(=O)[C@H](CSSC[C@H](N)C(=O)N[C@@H](CCCCN)C(=O)NCC(=O)N[C@@H](CCCCN)C(=O)NCC(=O)N[C@@H](C)C(=O)N[C@@H](CCCCN)C(=O)N2)NC(=O)[C@H](CSSC[C@@H](C(N)=O)NC(=O)[C@H](CCCCN)NC(=O)CNC(=O)[C@H](CO)NC(=O)[C@H](CCCNC(=N)N)NC3=O)NC(=O)[C@H](CC(=O)O)NC(=O)[C@H](Cc2ccc(O)cc2)NC1=O` [SNX-111], for which the “duration of reduction of heat hyperalgesia and mechanical allodynia” value is “at least three hours”; the heat hyperalgesia result is reported as “reduced”; the mechanical allodynia result is on record as “reduced”; the mechanical hyperalgesia entry is reported as “no effect”. Further, the “responses to sensory stimuli, thermal or mechanical” value is “no effect”.
